The test concerns the target Glycogen synthase kinase 3 beta (Sus scrofa, UniProt B2LUN4). Briefly: Inhibition of porcine brain GSK3beta using YRRAAVPPSPSLSRHSSPHQSpEDEEE as substrate.

Sequence of Glycogen synthase kinase 3 beta (B2LUN4 whole entry): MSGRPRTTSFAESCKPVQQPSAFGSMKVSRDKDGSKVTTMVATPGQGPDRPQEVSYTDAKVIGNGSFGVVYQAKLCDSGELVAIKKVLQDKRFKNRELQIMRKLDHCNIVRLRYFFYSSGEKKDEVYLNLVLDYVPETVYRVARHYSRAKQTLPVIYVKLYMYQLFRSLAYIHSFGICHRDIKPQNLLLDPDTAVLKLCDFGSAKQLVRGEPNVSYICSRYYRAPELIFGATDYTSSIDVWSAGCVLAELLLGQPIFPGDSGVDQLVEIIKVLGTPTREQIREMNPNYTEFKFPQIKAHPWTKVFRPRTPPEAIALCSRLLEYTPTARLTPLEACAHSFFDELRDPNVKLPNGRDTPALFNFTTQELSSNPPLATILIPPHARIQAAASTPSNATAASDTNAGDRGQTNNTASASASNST

On to `Cn1c(O)c(-c2[nH]c3ccccc3c2N=O)c2cccc(Br)c21`, for which the concentration for half-maximal inhibition (IC50) was over 10 µM.

(Values after ChEMBL document CHEMBL2321863, “Novel Inverse Binding Mode of Indirubin Derivatives Yields Improved Selectivity for DYRK Kinases” (ACS Med Chem Lett, 2013).)
